Results as given in the supplement of paper PMC11061612.

Assays:
[1] = compound: C1CN(CCC1(C(=O)N[C@@H](CCO)C2=CC=C(C=C2)Cl)N)C3=NC=NC4=C3C=CN4 [Capivasertib]; conditions: max 10 µM
Outline: (§1)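 Following 24 hours at 37°C and 5% CO2, cancer cell lines in 1536-well plates with 7.5 μl DMEM/F12 or RPMI and 10% FBS were dosed for 72 hours, final DMSO typically being 0.2%. CellTiter-Glo 2.0 luminescence, scaled between blank-well and DMSO-well means, gave the viability readout. Dose responses were fitted to a two-parameter logistic curve with a non-linear mixed effects model, and the single-agent IC50 was derived from this fit.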

[2] = compound: C=CCn1c(=O)c2cnc(Nc3ccc(N4CCN(C)CC4)cc3)nc2n1-c1cccc(C(C)(C)O)n1 [AZD1775]; conditions: max 3 µM
Outline: as §1

[3] = compound: CC(=O)Nc1cccc(-n2c(=O)n(C3CC3)c(=O)c3c(Nc4ccc(I)cc4F)n(C)c(=O)c(C)c32)c1 [Trametinib]; conditions: max 1 µM
Outline: as §1

[4] = compound: CC(=O)c1c(C)c2cnc(Nc3ccc(N4CCNCC4)cn3)nc2n(C2CCCC2)c1=O [Palbociclib]; conditions: max 10 µM
Outline: as §1

[5] = compound: CC(C)n1c(=O)n(C)c2cnc3cc(F)c(-c4ccc(OCCCN5CCCCC5)nc4)cc3c21 [AZD1390]; conditions: max 0.3 µM
Outline: as §1

[6] = compound: CC1(C)CCC(CN2CCN(c3ccc(C(=O)NS(=O)(=O)c4ccc(NCC5CCOCC5)c([N+](=O)[O-])c4)c(Oc4cnc5[nH]ccc5c4)c3)CC2)=C(c2ccc(Cl)cc2)C1 [Venetoclax]; conditions: max 1 µM
Outline: as §1

[7] = compound: CC1=C(C(=CC=C1)Cl)NC(=O)C2=CN=C(S2)NC3=CC(=NC(=N3)C)N4CCN(CC4)CCO [Dasatinib]; conditions: max 2 µM
Outline: as §1

[8] = compound: CC1=CN2[C@@H](C1)C=NC3=CC(=C(C=C3C2=O)OC)OCCCCCOC4=C(C=C5C(=C4)N=C[C@@H]6CC(=CN6C5=O)C)OC [SG3199]; conditions: max 0.001 µM
Outline: as §1

[9] = compound: CCN(CCO)CCCOc1ccc2c(Nc3cc(CC(=O)Nc4cccc(F)c4)[nH]n3)ncnc2c1 [AZD2811]; conditions: max 1 µM
Outline: as §1

[10] = compound: CCc1c2c(nc3ccc(O)cc13)-c1cc3c(c(=O)n1C2)COC(=O)[C@]3(O)CC [SN-38]; conditions: max 0.3 µM
Outline: as §1

[11] = compound: CN(C)CCCOc1ccc(-c2ccc3ncc4c(c3c2)n(C2CCOCC2)c(=O)n4C)cn1 [AZD0156]; conditions: max 3 µM
Outline: as §1

[12] = compound: CN(CC[C@H](CSC1=CC=CC=C1)NC2=C(C=C(C=C2)S(=O)(=O)NC(=O)C3=CC=C(C=C3)N4CCC(CC4)[C@H](C5=CC=CC=C5C6=CC=C(C=C6)Cl)O)S(=O)(=O)C(F)(F)F)CCO [AZD4320]; conditions: max 1 µM
Outline: as §1

[13] = compound: COc1cc(Nc2ncc3c(n2)-c2ccc(Cl)cc2C(c2c(F)cccc2OC)=NC3)ccc1C(=O)O [Alisertib]; conditions: max 10 µM
Outline: as §1

[14] = compound: COc1cc2ncnc(Nc3ccc(F)c(Cl)c3)c2cc1OCCCN1CCOCC1 [Gefitinib]; conditions: max 10 µM
Outline: as §1

[15] = compound: COc1cccc(OCCCN)c1-c1cc(Nc2cnc(C#N)cn2)n[nH]1 [Prexasertib]; conditions: max 1 µM
Outline: as §1

[16] = compound: COc1cccc2c1C(=O)c1c(O)c3c(c(O)c1C2=O)C[C@@](O)(C(=O)CO)C[C@@H]3O[C@H]1C[C@H](N)[C@H](O)[C@H](C)O1 [Doxorubicin]; conditions: max 1 µM
Outline: as §1

[17] = compound: COc1nnc2ccc(N3CCC(c4ccc(OCCN5CCN(C)C(=O)[C@H]5C)cc4)CC3)nn12 [AZD5153]; conditions: max 1 µM
Outline: as §1

[18] = compound: CS(=O)(=O)CCNCc1ccc(-c2ccc3ncnc(Nc4ccc(OCc5cccc(F)c5)c(Cl)c4)c3c2)o1 [Lapatinib]; conditions: max 10 µM
Outline: as §1

[19] = compound: C[C@@H](Nc1cc(F)cc(F)c1)c1cc(C(=O)N(C)C)cc2c(=O)cc(N3CCOCC3)oc12 [AZD8186]; conditions: max 3 µM
Outline: as §1

[20] = compound: C[C@@H](Oc1cc(-c2cnn(C3CCNCC3)c2)cnc1N)c1c(Cl)ccc(F)c1Cl [Crizotinib]; conditions: max 10 µM
Outline: as §1

[21] = compound: C[C@@H](c1ccc2nccn2c1)n1nnc2ncc(-c3cnn(C)c3)nc21 [Savolitinib]; conditions: max 1 µM
Outline: as §1

[22] = compound: C[C@@H]1COCCN1C2=NC(=NC(=C2)C3(CC3)[S@](=N)(=O)C)C4=C5C=CNC5=NC=C4 [AZD6738]; conditions: max 10 µM
Outline: as §1

[23] = compound: Cc1c2c(nn1C)CSCc1cc(n(C)n1)CSc1cc(c3ccccc3c1)OCCCc1c(C(=O)O)n(C)c3c-2c(Cl)ccc13 [AZD5991]; conditions: max 1 µM
Outline: as §1

[24] = compound: Cc1cc2ncnn2cc1Nc1ncc2c(n1)n(C1CCOCC1)c(=O)n2C [AZD7648]; conditions: max 10 µM
Outline: as §1

[25] = compound: Cc1nc(-c2cn3c(n2)-c2ccc(-c4cnn(C(C)(C)C(N)=O)c4)cc2OCC3)n(C(C)C)n1 [Taselisib]; conditions: max 10 µM
Outline: as §1

[26] = compound: Cn1cnc2c(F)c(Nc3ccc(Br)cc3Cl)c(C(=O)NOCCO)cc21 [Selumetinib]; conditions: max 10 µM
Outline: as §1

[27] = compound: O=C(c1cc(Cc2n[nH]c(=O)c3ccccc23)ccc1F)N1CCN(C(=O)C2CC2)CC1 [Olaparib]; conditions: max 10 µM
Outline: as §1

Cell Line	IC50, cell viability 72 h [1] [µM]	IC50, cell viability 72 h [2] [µM]	IC50, cell viability 72 h [3] [µM]	IC50, cell viability 72 h [4] [µM]	IC50, cell viability 72 h [5] [µM]	IC50, cell viability 72 h [6] [µM]	IC50, cell viability 72 h [7] [µM]	IC50, cell viability 72 h [8] [µM]	IC50, cell viability 72 h [9] [µM]	IC50, cell viability 72 h [10] [µM]	IC50, cell viability 72 h [11] [µM]	IC50, cell viability 72 h [12] [µM]	IC50, cell viability 72 h [13] [µM]	IC50, cell viability 72 h [14] [µM]	IC50, cell viability 72 h [15] [µM]	IC50, cell viability 72 h [16] [µM]	IC50, cell viability 72 h [17] [µM]	IC50, cell viability 72 h [18] [µM]	IC50, cell viability 72 h [19] [µM]	IC50, cell viability 72 h [20] [µM]	IC50, cell viability 72 h [21] [µM]	IC50, cell viability 72 h [22] [µM]	IC50, cell viability 72 h [23] [µM]	IC50, cell viability 72 h [24] [µM]	IC50, cell viability 72 h [25] [µM]	IC50, cell viability 72 h [26] [µM]	IC50, cell viability 72 h [27] [µM]
RD (Rhabdomyosarcoma)	> 10	1.03	> 1	> 10	> 0.3	> 1	> 2	> 0.001	> 1	> 0.3	> 3	0.706	> 10	> 10	0.465	> 1	0.951	> 10	> 3	> 10	> 1	> 10	> 1	> 10	2.27	> 10	> 10
RPMI-8226 (Plasma Cell Myeloma)	> 10	1.6	> 1	5.79	> 0.3	> 1	> 2	> 0.001	> 1	0.0596	> 3	0.15	1.41	> 10	0.0305	0.599	0.114	> 10	> 3	> 10	> 1	2.02	0.0882	> 10	> 10	> 10	> 10
SK-GT-2 (Gastric Carcinoma)	> 10	0.848	> 1	> 10	> 0.3	> 1	> 2	> 0.001	> 1	> 0.3	> 3	> 1	> 10	4.89	0.0767	> 1	> 1	1.13	> 3	> 10	> 1	> 10	> 1	> 10	6.64	> 10	> 10
